The results in this text go back to US20260159474A1, “Aminoindane Compounds and Compositions and Methods of Their Therapeutic Use” (Solvonis Therapeutics Ireland Holdings Limited, priority 2021, published 2026).

The target in this series is T1, human P-glycoprotein transporter (MDCKII-MDR1 cells) (Homo sapiens, UniProt P08183).
T1 construct: expressed in transfected cells; host or cells: MDCKII-MDR1 (Madin-Darby Canine Kidney clone II)
In words: Bidirectional permeability and P-gp substrate assay in MDCKII-MDR1 cells. Format: in vitro ADME. The following applies: for Permeability classification: by Papp; for Papp A→B at 60 min: dog, MDCK, read-out: MDCKII Permeability app A > B; for P-gp Substrate?: efflux ratio >2 and reduced with GF120918 or in mock MDCKII cells. Here is the method:
Methods: A bidirectional permeability study was conducted to evaluate the apparent permeability (Papp) of therapeutic compounds. Additionally, the MDCKII-MDR1 cell line (Madin-Darby Canine Kidney clone II cell line heterologously expressing the human P-glycoprotein transporter) and mock cell line MDCKII were used to determine whether a compound acted as a P-gp substrate, in the absence and in the presence of a potent P-gp inhibitor. Test control items (digoxin, metoprolol, and atenolol) and control P-gp inhibitor (GF120918) stock solution were prepared in DMSO. Bidirectional assays (Apical to Basolateral [AB] and Basolateral to Apical [BA]) were run, in both the absence and presence of P-gp inhibitor GF120918 in MDCKII-MDR1 and mock cell line MDCKII, using as transport buffer HBSSH at a pH of 7.4 (n=3).
Compounds were tested at a single concentration (i.e. at […]) at one time point (i.e. 60 min). Alternative concentrations or time points may also be investigated. As reference compounds, digoxin (P-gp substrate), atenolol (low permeability) and metoprolol (high permeability) were included at a single concentration (e.g., 10 or […]) and at single time point (e.g., 60 min). Digoxin transport was evaluated in two directions (apical-to-basolateral [AB] and basolateral-to-apical [BA]) in the absence and presence of GF120918 or in mock cells, MDCKII (n=3). Atenolol and metoprolol were only tested in the AB direction in absence of P-gp inhibitor GF120918 or in mock cells, MDCKII (n=3). The integrity of the cell monolayer was evaluated after the permeability experiment using the paracellular permeability marker Lucifer yellow (LY) in the apical to basolateral direction in each well.
MDCKII or MDCKII-MDR1 cells were cultivated in DMEM (high glucose, GlutaMAXTM supplemented with pyruvate, 10% FBS HI and Pen/Strep). Cells were seeded onto microporous PET (Polyethylene Terephthalate) membranes in HTS 96-Multiwell Insert plates at a density of ˜175,000-245,000 cells/cm^2 (25000-35000 cells/well; 50 μL/well) in DMEM medium and incubated for 3-4 days at 37° C.-5% CO2. Medium was changed the day before the experiment.
Stock solutions of test items were prepared in DMSO at a concentration of 5 or 10 mM and stored at −20° C. until use. The potent P-gp inhibitor, GF120918 (stock solution 10 mM) and the reference controls digoxin, atenolol, metoprolol (stock solutions 3 or 10 mM) were prepared in DMSO and stored at −20° C. until use.
Donor working solutions of test items and reference controls were prepared at a concentration of 10 or 25 µM, diluting the stock solutions in HBSSH. Receiver working solutions contained transport buffer only. All working solutions were prepared such that the final concentration of DMSO was 1% (v/v). A donor working solution containing LY was also prepared in transport buffer at 100 µM.
MDCKII and MDCKII-MDR1 cells were preincubated (37° C., 15 to 30 minutes) in receiver working solutions containing transport buffer on apical (A) and basolateral (B) sides. Following pre-incubation, test items and control items (digoxin) transport were measured in two directions (apical to basolateral [AB]) and basolateral to apical [BA]), and these directions were performed in triplicate sets of wells, in both the absence and presence of […] GF120918 or mock MDCKII cells. For [AB] directional transport, 75 μL of donor working solution was added to the A (apical) compartment and 235 μL of receiver working solution was added to the B (basolateral) compartment. For [BA] directional transport, 235 μL donor working solution with test items or reference controls was added to the B compartment and 75 μL receiver working solution was added to the A compartment. Transport of permeability reference controls, atenolol and metoprolol, were measured in one direction (apical to basolateral [AB]) (n=3).
The cells were incubated (at 37° C., with shaking) for 60 minutes. […]

Where [1] appears, read: apical to basolateral, pH 7.4, 60 min.

T1 sequence (P08183 whole entry): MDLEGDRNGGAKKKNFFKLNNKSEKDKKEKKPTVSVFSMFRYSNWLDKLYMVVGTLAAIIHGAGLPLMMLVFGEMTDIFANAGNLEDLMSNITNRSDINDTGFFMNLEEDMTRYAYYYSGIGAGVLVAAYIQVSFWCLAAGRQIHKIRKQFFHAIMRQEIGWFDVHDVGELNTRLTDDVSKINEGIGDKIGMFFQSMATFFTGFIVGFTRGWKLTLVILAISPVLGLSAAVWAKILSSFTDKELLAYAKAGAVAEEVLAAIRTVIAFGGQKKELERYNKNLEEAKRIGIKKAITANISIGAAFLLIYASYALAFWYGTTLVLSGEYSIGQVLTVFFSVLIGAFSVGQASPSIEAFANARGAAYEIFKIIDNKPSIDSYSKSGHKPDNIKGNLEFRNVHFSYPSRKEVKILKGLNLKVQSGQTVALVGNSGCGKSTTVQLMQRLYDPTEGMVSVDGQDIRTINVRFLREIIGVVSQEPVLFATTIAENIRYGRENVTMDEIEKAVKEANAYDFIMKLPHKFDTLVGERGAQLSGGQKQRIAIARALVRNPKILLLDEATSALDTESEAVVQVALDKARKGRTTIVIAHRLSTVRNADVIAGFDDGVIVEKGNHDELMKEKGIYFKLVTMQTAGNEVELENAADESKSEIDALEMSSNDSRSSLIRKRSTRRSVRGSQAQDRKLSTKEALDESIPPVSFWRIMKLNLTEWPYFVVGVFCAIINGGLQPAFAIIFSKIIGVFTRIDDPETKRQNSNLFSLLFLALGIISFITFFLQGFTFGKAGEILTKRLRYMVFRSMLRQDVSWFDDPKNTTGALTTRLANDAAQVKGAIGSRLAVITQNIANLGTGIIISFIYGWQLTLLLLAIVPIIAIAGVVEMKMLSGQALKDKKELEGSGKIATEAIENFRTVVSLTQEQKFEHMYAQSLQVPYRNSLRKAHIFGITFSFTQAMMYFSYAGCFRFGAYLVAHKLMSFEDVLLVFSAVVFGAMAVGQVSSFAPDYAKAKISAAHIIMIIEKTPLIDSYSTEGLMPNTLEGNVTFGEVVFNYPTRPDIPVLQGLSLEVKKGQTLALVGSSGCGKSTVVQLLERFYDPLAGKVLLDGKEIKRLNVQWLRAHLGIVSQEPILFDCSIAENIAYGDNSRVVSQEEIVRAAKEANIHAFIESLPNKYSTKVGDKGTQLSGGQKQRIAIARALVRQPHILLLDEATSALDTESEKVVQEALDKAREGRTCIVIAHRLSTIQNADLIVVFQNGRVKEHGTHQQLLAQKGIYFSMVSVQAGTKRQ

Regarding `COC(=O)c1ccc2c(c1)CC(N)C2` (stereo not shown) [CMP-405, 2-aminoindane-5-methylcarboxylate], the Permeability classification entry was “highly permeable” and the “P-gp Substrate?” value was “No”. Moreover, the Papp A→B at 60 min under setting [1] is 16.2 ×10⁻⁶ cm/s.
The corresponding values for `COc1ccc2c(c1)CC(N)C2` (stereo not shown) [MEAI, 5-methoxy-2-aminoindane] are “highly permeable”, “No” and 17.4 ×10⁻⁶ cm/s.
For the molecule `CNC(C)Cc1ccc2c(c1)OCO2` (stereo not shown) [MDMA], the Permeability classification result is listed as “less permeable” and the “P-gp Substrate?” value is “No”. Under setting [1], the “MDCKII Permeability app A > B” value was 14 ×10⁻⁶ cm/s. Besides, the “MDCKII-MDR1 B-A ratio” value (efflux ratio, MDCKII-MDR1 cells) was 1.5.
